From patent US6448405B1, “Steroid receptor modulator compounds and methods” (Ligand Pharmaceuticals Incorporated, priority 1994, dated 2002)
Read-outs that look alike come from different tables or passages of the source.

Legend:
human PR-B = biological target: T1, human PR-B (Homo sapiens, UniProt P06401); test: Co-transfection assay, PR agonist and antagonist activity, CV-1 cells; format: cell-based; conditions: for EC50: agonist mode, read-out: PR Agonist CV-1 Cells Potency; for IC50: read-out: PR Antagonist CV-1 Cells Potency;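 for all read-outs here: luciferase reporter driven by a hormone response element, co-transfected with human PR-B into CV-1 monkey kidney cells, agonists raise and antagonists lower the reporter signal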
T1 construct: expressed in transfected cells; host or cells: CV-1 cells (African green monkey kidney fibroblasts), transient transfection
T1 sequence (P06401 1-933): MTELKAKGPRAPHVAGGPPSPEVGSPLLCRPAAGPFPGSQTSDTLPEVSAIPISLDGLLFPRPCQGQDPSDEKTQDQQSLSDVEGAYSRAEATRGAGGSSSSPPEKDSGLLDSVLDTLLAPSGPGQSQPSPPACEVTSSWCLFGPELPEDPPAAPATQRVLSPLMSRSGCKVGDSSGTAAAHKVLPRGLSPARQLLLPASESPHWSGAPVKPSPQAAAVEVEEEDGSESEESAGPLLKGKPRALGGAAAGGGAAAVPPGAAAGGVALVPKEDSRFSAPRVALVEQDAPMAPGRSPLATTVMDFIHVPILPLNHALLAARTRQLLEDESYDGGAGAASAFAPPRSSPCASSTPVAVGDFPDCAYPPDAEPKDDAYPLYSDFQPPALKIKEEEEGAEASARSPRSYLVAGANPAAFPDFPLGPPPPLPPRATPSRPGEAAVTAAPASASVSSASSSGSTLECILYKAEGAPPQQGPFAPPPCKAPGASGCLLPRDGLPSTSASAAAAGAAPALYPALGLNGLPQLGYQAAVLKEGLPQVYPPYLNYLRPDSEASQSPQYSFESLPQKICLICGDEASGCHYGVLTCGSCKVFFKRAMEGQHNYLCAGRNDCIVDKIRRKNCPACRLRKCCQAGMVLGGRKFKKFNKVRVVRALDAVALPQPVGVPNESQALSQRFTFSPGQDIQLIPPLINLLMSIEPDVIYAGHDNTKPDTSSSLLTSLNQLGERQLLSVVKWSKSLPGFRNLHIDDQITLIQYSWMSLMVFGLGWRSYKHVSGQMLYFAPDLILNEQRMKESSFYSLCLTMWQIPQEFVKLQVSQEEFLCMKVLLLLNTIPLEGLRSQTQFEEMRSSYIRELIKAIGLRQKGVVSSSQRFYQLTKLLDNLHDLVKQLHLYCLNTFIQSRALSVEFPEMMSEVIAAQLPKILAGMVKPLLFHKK

[1] = biological target: T2, human progesterone receptor A form (PR-A) (Homo sapiens, UniProt P06401); test: PR binding assay, baculovirus extract, [3H] progesterone
T2 sequence (P06401 1-769 isoform P06401-2): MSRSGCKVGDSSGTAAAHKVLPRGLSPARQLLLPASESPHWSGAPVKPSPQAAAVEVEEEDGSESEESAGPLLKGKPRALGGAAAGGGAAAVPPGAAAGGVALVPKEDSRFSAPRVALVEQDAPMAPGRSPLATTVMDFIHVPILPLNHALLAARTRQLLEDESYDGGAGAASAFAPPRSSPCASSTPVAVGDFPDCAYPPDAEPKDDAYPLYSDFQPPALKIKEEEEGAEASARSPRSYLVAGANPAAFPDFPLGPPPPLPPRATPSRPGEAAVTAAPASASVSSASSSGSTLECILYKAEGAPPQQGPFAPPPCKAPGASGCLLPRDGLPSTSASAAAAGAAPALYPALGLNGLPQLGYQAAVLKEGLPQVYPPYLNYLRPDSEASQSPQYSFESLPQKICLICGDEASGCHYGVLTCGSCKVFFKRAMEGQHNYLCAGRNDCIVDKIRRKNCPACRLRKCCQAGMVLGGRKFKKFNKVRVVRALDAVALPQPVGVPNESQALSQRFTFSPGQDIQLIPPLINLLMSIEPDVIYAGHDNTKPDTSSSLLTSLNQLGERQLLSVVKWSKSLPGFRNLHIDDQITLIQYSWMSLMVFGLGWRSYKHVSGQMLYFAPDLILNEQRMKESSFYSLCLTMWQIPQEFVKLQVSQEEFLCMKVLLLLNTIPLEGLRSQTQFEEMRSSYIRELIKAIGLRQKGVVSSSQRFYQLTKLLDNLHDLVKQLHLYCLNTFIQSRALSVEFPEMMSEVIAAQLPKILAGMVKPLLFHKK

PR, AR, ER, GR and MR = test: cis-trans or co-transfection assay, steroid receptor panel (cross-reactivity); format: cell-based, human; conditions: as seen in the Tables
[2] = test system: uterine wet weight in ovariectomized Sprague-Dawely rats; test: Uterine wet weight assay (PR agonists); format: in vivo, rat; conditions: for effect on uterine wet weight when co-administered with estrone: MPA and Compound 210 at 0.3, 1.0 and 3.0 mg/rat, Compound 163 at 3 mg/rat
Text: The effectiveness of selected compounds of the present invention as PR agonists was investigated in the well recognized uterine wet weight assay, as described in G. J. Marcus, “Mitosis in the rat uterus during the estrous cycle, early pregnancy and early pseudopregnancy”, 10 Biol. Reprod., 447 (1974), S. […] J. Obstet. […] I. Dorfman, “Estrogens” (Ch. 2) and “Antiestrogens” (Ch. 3). in Methods in Hormone Research, ed. R. I. Dorfman, Academic Press, New York, New York, pp101-130 (1969), the disclosures of which are herein incorporated by reference. Four to five week old, ovariectomized, Sprague-Dawely rats (Harlan-Sprague-Dawely, Indianapolis, Ind.) were obtained 1 week after surgery and allowed to acclimate for an additional week after shipment. […] Louis, Mo.) a synthetic estrogen agonist, were fully dissolved in purified sesame oil (Croda, Parsippany, N.J.). […] Additional control groups of rats were administered estrone or vehicle (i.e. sesame oil) alone. Animals were sacrificed on the fourth day of the experiment.

[3] = biological target: T3, human glucocorticoid receptor (GR) (Homo sapiens, UniProt P04150); test: Co-transfection assay, GR antagonist activity, CV-1 cells (pRShGR); format: cell-based; conditions: for GR Antagonist CV-1 Cells Efficacy (%): Table 4, antagonist mode, % maximal inhibition
T3 construct: expressed in transfected cells; host or cells: CV-1 cells, transient transfection
T3 sequence (P04150 1-777): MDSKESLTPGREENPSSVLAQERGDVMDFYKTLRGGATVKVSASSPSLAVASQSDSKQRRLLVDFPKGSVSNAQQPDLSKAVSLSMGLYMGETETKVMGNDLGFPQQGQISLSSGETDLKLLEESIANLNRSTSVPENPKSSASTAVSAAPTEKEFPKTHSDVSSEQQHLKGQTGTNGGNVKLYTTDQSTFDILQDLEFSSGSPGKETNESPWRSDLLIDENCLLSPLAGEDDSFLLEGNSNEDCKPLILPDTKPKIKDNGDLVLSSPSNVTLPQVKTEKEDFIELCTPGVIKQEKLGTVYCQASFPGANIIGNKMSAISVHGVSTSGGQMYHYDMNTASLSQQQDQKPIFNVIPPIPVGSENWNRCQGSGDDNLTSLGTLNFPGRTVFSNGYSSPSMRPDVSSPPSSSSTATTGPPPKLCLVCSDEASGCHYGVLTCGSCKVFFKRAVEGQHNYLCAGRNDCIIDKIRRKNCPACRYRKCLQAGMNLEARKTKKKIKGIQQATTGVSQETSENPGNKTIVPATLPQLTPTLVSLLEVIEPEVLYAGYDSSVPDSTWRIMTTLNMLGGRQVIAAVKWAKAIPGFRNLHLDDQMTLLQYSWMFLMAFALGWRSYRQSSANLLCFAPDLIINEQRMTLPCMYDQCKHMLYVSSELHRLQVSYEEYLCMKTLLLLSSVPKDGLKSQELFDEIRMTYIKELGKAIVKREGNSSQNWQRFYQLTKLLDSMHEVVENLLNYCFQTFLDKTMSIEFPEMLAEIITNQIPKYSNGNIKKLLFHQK

[4] = biological target: T4, human mineralocorticoid receptor (MR) (Homo sapiens, UniProt P08235); test: Co-transfection assay, MR antagonist activity, CV-1 cells (pRShMR); format: cell-based; conditions: Table 4; antagonist mode; % maximal inhibition
T4 construct: expressed in transfected cells; host or cells: CV-1 cells, transient transfection
T4 sequence (P08235 1-984): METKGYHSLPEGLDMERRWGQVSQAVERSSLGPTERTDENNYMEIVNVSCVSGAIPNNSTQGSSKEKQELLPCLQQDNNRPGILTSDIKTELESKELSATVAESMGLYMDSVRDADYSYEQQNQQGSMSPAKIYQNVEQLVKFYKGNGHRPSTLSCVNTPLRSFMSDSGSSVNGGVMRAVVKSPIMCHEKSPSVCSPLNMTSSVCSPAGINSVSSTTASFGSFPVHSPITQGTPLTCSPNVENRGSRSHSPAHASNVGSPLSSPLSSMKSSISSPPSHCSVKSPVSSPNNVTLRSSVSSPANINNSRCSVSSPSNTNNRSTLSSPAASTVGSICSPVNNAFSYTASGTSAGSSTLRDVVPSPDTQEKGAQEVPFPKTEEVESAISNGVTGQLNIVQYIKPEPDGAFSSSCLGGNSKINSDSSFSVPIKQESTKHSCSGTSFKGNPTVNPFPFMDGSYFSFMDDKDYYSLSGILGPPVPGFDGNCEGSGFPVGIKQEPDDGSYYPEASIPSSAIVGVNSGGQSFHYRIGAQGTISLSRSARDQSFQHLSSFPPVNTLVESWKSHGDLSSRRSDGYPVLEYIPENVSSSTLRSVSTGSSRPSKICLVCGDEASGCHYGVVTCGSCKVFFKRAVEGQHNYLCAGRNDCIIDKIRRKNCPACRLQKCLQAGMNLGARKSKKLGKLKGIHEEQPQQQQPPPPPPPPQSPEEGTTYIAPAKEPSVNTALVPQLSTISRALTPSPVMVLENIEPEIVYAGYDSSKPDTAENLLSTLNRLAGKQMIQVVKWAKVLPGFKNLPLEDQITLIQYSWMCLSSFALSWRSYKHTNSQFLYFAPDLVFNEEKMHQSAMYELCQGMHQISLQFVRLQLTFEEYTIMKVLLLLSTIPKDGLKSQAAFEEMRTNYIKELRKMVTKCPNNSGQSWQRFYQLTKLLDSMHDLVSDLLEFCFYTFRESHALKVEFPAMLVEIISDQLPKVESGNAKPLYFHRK

[5] = 0.3 mg/rat oral once a day for three days + E1 10 μg
[6] = 1.0 mg/rat oral once a day for three days + E1 10 μg
[7] = 3.0 mg/rat oral once a day for three days + E1 10 μg

Question: What does the source list for `CC1CC(C)(C)Nc2ccc(-c3cc(F)cc(C#N)c3)cc21` (racemic) [Compound 455, (R/S)-6-(3-Cyano-5-Fluorophenyl)-1,2,3,4-Tetrahydro-2,2,4-trimethylquinoline]?
Answer: PR Agonist CV-1 Cells Efficacy (%) (human PR-B): na (na = not active (i.e. efficacy or <20 and potency of >10,000)); PR Antagonist CV-1 Cells Efficacy (%) (human PR-B): 76%; EC50 (human PR-B): > 10000 nM; IC50 (human PR-B): 35 nM; Ki ([1]; read-out: PR Binding Ki): 10 nM; steroid receptor selectivity profile (PR, AR, ER, GR and MR): highly selective PR antagonists

Question: What does the source list for `CC1=CC(C)(C)Nc2ccc3c(c21)/C(=C/c1ccccc1C)Oc1ccc(F)cc1-3` [Compound 374, (Z)-9-Fluoro-1,2-dihydro-2,2,4-trimethyl-5-(2-methylbenzylidene)-5H-chromeno[3,4-f]quinoline]?
Answer: PR Agonist CV-1 Cells Efficacy (%) (human PR-B): 231%; PR Antagonist CV-1 Cells Efficacy (%) (human PR-B): na (na = not active (i.e. efficacy or <20 and potency of >10,000)); EC50 (human PR-B): 4 nM; IC50 (human PR-B): > 10000 nM; Ki [1]: 0.5 nM; steroid receptor selectivity profile (PR, AR, ER, GR and MR): highly selective PR agonists

Question: Which EC50 (human PR-B) does the source give for `CC1=CC(C)(C)Nc2ccc3c(c21)C(c1cccc(F)c1)Oc1ccccc1-3` (racemic) [Compound 191, (R/S)-5-(3-Fluorophenyl)-1,2-dihydro-2,2,4-trimethyl-5H-chromeno[3,4-f]quinoline] here?
Answer: Its EC50 is 9 nM.

Question: And the IC50 (human PR-B)?
Answer: Its IC50 is 150 nM.

Question: And the Ki ([1]; read-out: PR Binding Ki)?
Answer: Its Ki is 1 nM.

Question: And the “steroid receptor selectivity profile” value (PR, AR, ER, GR and MR)?
Answer: Its value is “highly selective PR agonists”.

Question: What does the source list for `CC(=O)O[C@]1(C(C)=O)CC[C@H]2[C@@H]3C[C@H](C)C4=CC(=O)CC[C@]4(C)[C@H]3CC[C@@]21C` [MPA, medroxyprogesterone acetate, reference compound]?
Answer: Mean Uterine Wet Weight [2, 5]: 140 mg; Mean Uterine Wet Weight [2, 6]: 130 mg; Mean Uterine Wet Weight [2, 7]: 130 mg; effect on uterine wet weight when co-administered with estrone [2]: significantly decreased

Question: Which “GR Antagonist CV-1 Cells Efficacy (%)” value [3] does the source give for `CC#C[C@]1(O)CC[C@H]2[C@@H]3CCC4=CC(=O)CCC4=C3[C@@H](c3ccc(N(C)C)cc3)C[C@@]21C` [RU486, (11 beta, 17 beta)-11-[4-(dimethylamino)phenyl]-17-hydroxy-17-(1-propynyl)estra-4,9-dien-3-one, reference compound] here?
Answer: Its value is 100%.

Question: And the “MR Antagonist CV-1 Cells Efficacy (%)” value [4]?
Answer: Its value is 77%.

Question: Which “Mean Uterine Wet Weight” value [2, 5] does the source give for `CCCCC1Oc2ccc(F)cc2-c2ccc3c(c21)C(C)=CC(C)(C)N3` (racemic) [Compound 210, (R/S)-5-Butyl-9-fluoro-1,2-dihydro-2,2,4-trimethyl-5H-chromeno[3,4-f]quinoline] here?
Answer: Its value is 110 mg.

Question: And the “Mean Uterine Wet Weight” value [2, 6]?
Answer: Its value is 100 mg.

Question: And the “Mean Uterine Wet Weight” value [2, 7]?
Answer: Its value is 100 mg.

Question: And the “effect on uterine wet weight when co-administered with estrone” value [2]?
Answer: The value was “decreased by approximately half”.

Question: With `CC(=O)S[C@@H]1CC2=CC(=O)CC[C@]2(C)[C@H]2CC[C@@]3(C)[C@@H](CC[C@@]34CCC(=O)O4)[C@H]12` [Spir, reference compound] as the compound, how does the IC50 [3] read?
Answer: The IC50 was 2000 nM.

Question: What about the “GR Antagonist CV-1 Cells Efficacy (%)” value [3] of the same compound?
Answer: Its value is 80%.

Question: What about the “MR Antagonist CV-1 Cells Efficacy (%)” value [4] of the same compound?
Answer: Its value is 96%.
